28 molecules from patent publication US11739100B2, “2,3-dihydro-1h-imidazo{1,2-a}pyrimidin-5-one and this 1,2,3,4-tetrahydropyrimido{1,2-a}pyrimidin-6-one derivatives comprising a substituted morpholine, preparation thereof and pharmaceutical use thereof” (SANOFI, priority 2012, dated 2023) can be followed below.

The structures appear in SMILES notation. A value given as a limit tells only on which side of the number the result lay.

For this assay, the target named is T1, recombinant Vps34 (Homo sapiens, UniProt Q8NEB9).
T1 construct: purchased Invitrogen PV5126
Kind of assay: Phosphorylation of phosphatidylinositol (PI) by Vps34 in vitro, ADP detected by TR-FRET (HTRF Transcreener ADP). It counts as biochemical. The settings on record: 10 μM ATP, 55 μg/ml PI, approximately 3 nM Vps34, 1 hour at ambient temperature; absolute IC50, mean of two independent experiments; read-out: IC50 activity range. For orientation: Time-resolved FRET reads energy transfer from a long-lived donor to a nearby acceptor.

T1 sequence (Q8NEB9 whole entry): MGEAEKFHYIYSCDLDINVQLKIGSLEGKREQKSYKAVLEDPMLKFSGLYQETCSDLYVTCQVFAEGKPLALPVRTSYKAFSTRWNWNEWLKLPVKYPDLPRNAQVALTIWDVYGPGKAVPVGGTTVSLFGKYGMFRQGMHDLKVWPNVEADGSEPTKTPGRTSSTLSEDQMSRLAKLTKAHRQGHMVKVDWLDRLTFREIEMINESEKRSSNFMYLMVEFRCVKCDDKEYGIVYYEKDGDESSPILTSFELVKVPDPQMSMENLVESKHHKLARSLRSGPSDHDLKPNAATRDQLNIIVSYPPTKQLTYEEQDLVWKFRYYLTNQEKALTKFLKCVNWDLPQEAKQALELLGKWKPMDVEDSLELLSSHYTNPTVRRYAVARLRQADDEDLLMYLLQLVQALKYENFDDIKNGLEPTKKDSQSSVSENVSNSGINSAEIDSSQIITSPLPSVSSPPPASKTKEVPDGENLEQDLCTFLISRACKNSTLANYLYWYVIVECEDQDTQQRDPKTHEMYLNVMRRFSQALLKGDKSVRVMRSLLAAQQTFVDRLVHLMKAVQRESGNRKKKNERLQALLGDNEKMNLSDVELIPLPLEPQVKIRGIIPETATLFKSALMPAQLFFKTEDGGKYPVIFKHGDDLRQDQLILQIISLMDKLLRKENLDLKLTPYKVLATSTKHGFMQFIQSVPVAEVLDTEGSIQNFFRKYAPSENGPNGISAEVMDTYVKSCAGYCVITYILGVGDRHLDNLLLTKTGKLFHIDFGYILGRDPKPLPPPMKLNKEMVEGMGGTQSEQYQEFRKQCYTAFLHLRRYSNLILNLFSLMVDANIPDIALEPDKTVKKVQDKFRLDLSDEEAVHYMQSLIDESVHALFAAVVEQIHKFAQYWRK

Broadly, the IC50 is the concentration that inhibits the measured activity by half. Consider `C[C@@H]1COCCN1c1cc(=O)n2c(n1)N(Cc1ccc(Cl)nc1)[C@H](C(F)(F)F)CC2` [Example 35, (S)-9-(6-Chloro-pyridin-3-ylmethyl)-2-((R)-3-methyl-morpholin-4-yl)-8-trifluoromethyl-6,7,8,9-tetrahydro-pyrimido[1,2-a]-pyrimidin-4-one], for which the half-inhibitory concentration (IC50) was < 0.01 µM.

For `C[C@@H]1COCCN1c1nc2n(c(=O)c1F)CC[C@@H](C(F)(F)F)N2Cc1cocn1` [Example 44, (S)-3-Fluoro-2-((R)-3-methylmorpholin-4-yl)-9-oxazol-4-ylmethyl-8-trifluoromethyl-6,7,8,9-tetrahydro-pyrimido[1,2-a]-pyrimidin-4-one], the IC50 is < 0.01 µM. With `O=c1cc(N2CC3CCC(C2)O3)nc2n1CC[C@@H](C(F)(F)F)N2Cc1cnc(Cl)s1` [Example 165, (S)-9-(2-Chloro-thiazol-5-ylmethyl)-2-(8-oxa-3-aza-bicyclo[3.2.1]oct-3-yl)-8-trifluoromethyl-6,7,8,9-tetrahydro-pyrimido[1,2-a]-pyrimidin-4-one], the IC50 lay in the range of 0.01 to 0.1 µM. Take `O=C(CN1c2nc(N3CC4CCC(C3)O4)cc(=O)n2CC[C@H]1C(F)(F)F)c1ccccc1` [Example 163, (S)-2-(8-Oxa-3-aza-bicyclo[3.2.1]oct-3-yl)-9-(2-oxo-2-phenyl-ethyl)-8-trifluoromethyl-6,7,8,9-tetrahydro-pyrimido[1,2-a]-pyrimidin-4-one]: the IC50 is < 0.01 µM. As for `C[C@@H]1COCCN1c1nc2n(c(=O)c1F)C[C@@](C)(C(F)(F)F)N2CC(=O)c1ccccn1` [Example 199, (S)-6-Fluoro-2-methyl-7-((R)-3-methyl-morpholin-4-yl)-1-(2-oxo-2-pyridin-2-yl-ethyl)-2-trifluoromethyl-2,3-dihydro-1H-imidazo[1,2-a]-pyrimidin-5-one], the figure is < 0.01 µM; as for `CCC(=O)CN1c2nc(N3CCOC[C@H]3C)cc(=O)n2CC[C@H]1C(F)(F)F` [Example 16, (S)-2-((R)-3-Methyl-morpholin-4-yl)-9-(2-oxobutyl)-8-trifluoromethyl-6,7,8,9-tetrahydro-pyrimido[1,2-a]-pyrimidin-4-one], < 0.01 µM; as for `Cc1cc(C(=O)CN2c3nc(N4CCOC[C@H]4C)c(F)c(=O)n3CC[C@H]2C(F)(F)F)no1` [Example 294, (S)-3-Fluoro-9-[2-(5-methylisoxazol-3-yl)-2-oxoethyl]-2-((R)-3-methylmorpholin-4-yl)-8-trifluoromethyl-6,7,8,9-tetrahydro-pyrimido[1,2-a]-pyrimidin-4-one], < 0.01 µM. Under `C[C@@H]1COCCN1c1cc(=O)n2c(n1)N(CC(=O)c1ccccn1)[C@H](C(F)(F)F)CC2` [Example 1, (S)-2-((R)-3-Methyl-morpholin-4-yl)-9-(2-oxo-2-pyridin-2-yl-ethyl)-8-trifluoromethyl-6,7,8,9-tetrahydro-pyrimido[1,2-a]-pyrimidin-4-one] stands < 0.01 µM; under `C[C@@H]1COCCN1c1nc2n(c(=O)c1F)CC[C@@H](C(F)(F)F)N2CCO` [Example 204, (S)-3-Fluoro-9-(2-hydroxyethyl)-2-((R)-3-methylmorpholin-4-yl)-8-trifluoromethyl-6,7,8,9-tetrahydro-pyrimido[1,2-a]-pyrimidin-4-one], < 0.01 µM; under `CON(C)C(=O)CN1c2nc(N3CCOC[C@H]3C)cc(=O)n2CC[C@H]1C(F)(F)F` [Example 196, N-Methoxy-N-methyl-2-[(S)-8-((R)-3-methyl-morpholin-4-yl)-6-oxo-2-trifluoromethyl-3,4-dihydro-2H,6H-pyrimido[1,2-a]-pyrimidin-1-yl]-acetamide], < 0.01 µM. As for `C[C@@H]1COCCN1c1nc2n(c(=O)c1F)CC[C@@H](C(F)(F)F)N2CC(=O)c1nccs1` [Example 68, (S)-3-Fluoro-2-((R)-3-methylmorpholin-4-yl)-9-(2-oxo-2-thiazol-2-yl-ethyl)-8-trifluoromethyl-6,7,8,9-tetrahydro-pyrimido[1,2-a]-pyrimidin-4-one], the figure is < 0.01 µM; as for `C[C@@H]1COCCN1c1nc2n(c(=O)c1F)CCC(C)(C)N2CC(=O)c1ccccn1` [Example 71, 3-Fluoro-8,8-dimethyl-2-((R)-3-methyl-morpholin-4-yl)-9-(2-oxo-2-pyridin-2-yl-ethyl)-6,7,8,9-tetrahydro-pyrimido[1,2-a]-pyrimidin-4-one], < 0.01 µM. For the molecule `C[C@@H]1COC[C@@H](C)N1c1cc(=O)n2c(n1)N(c1cccnc1)[C@H](C(F)(F)F)CC2` [Example 160, (S)-2-((3R,5R)-3,5-Dimethylmorpholin-4-yl)-9-pyridin-3-yl-8-trifluoromethyl-6,7,8,9-tetrahydro-pyrimido[1,2-a]-pyrimidin-4-one], the IC50 is < 0.01 µM.

As for `C[C@@H]1COCCN1c1cc(=O)n2c(n1)N(Cc1ccno1)CC[C@@H]2C(F)(F)F` [Example 105, (R)-9-Isoxazol-5-yl-methyl-2-((R)-3-methylmorpholin-4-yl)-6-trifluoromethyl-6,7,8,9-tetrahydro-pyrimido[1,2-a]-pyrimidin-4-one], the IC50 is 0.01 to 0.1 µM. Consider `C[C@@H]1COCCN1c1cc(=O)n2c(n1)N(CC(=O)N1CCOCC1)[C@H](C(F)(F)F)CC2` [Example 234, (S)-2-((R)-3-Methyl-morpholin-4-yl)-9-(2-morpholin-4-yl-2-oxo-ethyl)-8-trifluoromethyl-6,7,8,9-tetrahydro-pyrimido[1,2-a]-pyrimidin-4-one], for which the IC50 lay in the range of 0.01 to 0.1 µM.

As to `Cc1nocc1CN1CC[C@H](C(F)(F)F)n2c1nc(N1CCOC[C@H]1C)c(F)c2=O` [Example 146, (R)-3-Fluoro-9-(3-methylisoxazol-4-yl-methyl)-2-((R)-3-methylmorpholin-4-yl)-6-trifluoromethyl-6,7,8,9-tetrahydro-pyrimido[1,2-a]-pyrimidin-4-one], the IC50 was < 0.01 µM. As for `CCC(=O)CN1CC[C@H](C(F)(F)F)n2c1nc(N1CCOC[C@H]1C)c(F)c2=O` [Example 29, (R)-3-Fluoro-2-((R)-3-methylmorpholin-4-yl)-9-(2-oxobutyl)-6-trifluoromethyl-6,7,8,9-tetrahydro-pyrimido[1,2-a]-pyrimidin-4-one], the IC50 is < 0.01 µM. As to `C[C@@H]1COCCN1c1cc(=O)n2c(n1)N(CC(C)(C)O)[C@](C)(C(F)(F)F)CC2` [Example 200, (S)-9-(2-Hydroxy-2-methylpropyl)-8-methyl-2-((R)-3-methylmorpholin-4-yl)-8-trifluoromethyl-6,7,8,9-tetrahydro-pyrimido[1,2-a]-pyrimidin-4-one], the IC50 is < 0.01 µM. Under `C[C@@H]1COCCN1c1cc(=O)n2c(n1)N(CC1COC1)[C@H](C(F)(F)F)CC2` [Example 133, (S)-2-((R)-3-Methyl-morpholin-4-yl)-9-oxetan-3-ylmethyl-8-trifluoromethyl-6,7,8,9-tetrahydro-pyrimido[1,2-a]-pyrimidin-4-one] stands < 0.01 µM; under `O=c1cc(N2CC3CCC(C2)O3)nc2n1CC[C@@H](C(F)(F)F)N2Cc1ccnn1C(F)F` [Example 166, (S)-9-(2-Difluoromethyl-2H-pyrazol-3-ylmethyl)-2-(8-oxa-3-aza-bicyclo[3.2.1]oct-3-yl)-8-trifluoromethyl-6,7,8,9-tetrahydro-pyrimido[1,2-a]-pyrimidin-4-one], 0.01 to 0.1 µM; under `C[C@@H]1COCCN1c1cc(=O)n2c(n1)N(Cc1nnc(C3CC3)o1)[C@H](C(F)(F)F)CC2` [Example 142, (S)-9-(5-Cyclopropyl-[1,3,4]oxadiazol-2-yl-methyl)-2-((R)-3-methylmorpholin-4-yl)-8-trifluoromethyl-6,7,8,9-tetrahydro-pyrimido[1,2-a]-pyrimidin-4-one], < 0.01 µM. Take `C[C@@H]1COC[C@@H](C)N1c1cc(=O)n2c(n1)N(Cc1ccon1)[C@H](C(F)(F)F)CC2` [Example 313, (S)-2-((3R,5R)-3,5-Dimethylmorpholin-4-yl)-9-isoxazol-3-yl-methyl-8-trifluoromethyl-6,7,8,9-tetrahydropyrimido-[1,2-a]pyrimidin-4-one]: the IC50 was < 0.01 µM. As for `C[C@@H]1COC[C@@H](C)N1c1cc(=O)n2c(n1)N(Cc1ccnc(Cl)c1)[C@H](C(F)(F)F)CC2` [Example 157, (S)-9-(2-Chloro-pyridin-4-ylmethyl)-2-((3R,5R)-3,5-dimethyl-morpholin-4-yl)-8-trifluoromethyl-6,7,8,9-tetrahydro-pyrimido[1,2-a]-pyrimidin-4-one], the figure is < 0.01 µM. As for `C[C@@H]1COCCN1c1nc2n(c(=O)c1F)C[C@@](C)(C(F)(F)F)N2CC(=O)C1CC1` [Example 187, (S)-1-(2-Cyclopropyl-2-oxoethyl)-6-fluoro-2-methyl-7-((R)-3-methylmorpholin-4-yl)-2-trifluoromethyl-2,3-dihydro-1H-imidazo[1,2-a]-pyrimidin-5-one], the figure is < 0.01 µM. Under `C[C@@H]1COCCN1c1cc(=O)n2c(n1)N(c1cccc(F)c1)[C@H](C(F)(F)F)CC2` [Example 75, (S)-9-(3-Fluoro-phenyl)-2-((R)-3-methylmorpholin-4-yl)-8-trifluoromethyl-6,7,8,9-tetrahydro-pyrimido[1,2-a]-pyrimidin-4-one] stands < 0.01 µM. As for `C[C@@H]1COCCN1c1cc(=O)n2c(n1)N(CC(=O)C1CCNCC1)[C@H](C(F)(F)F)CC2` [Example 265, (S)-2-((R)-3-Methyl-morpholin-4-yl)-9-(2-oxo-2-piperidin-4-yl-ethyl)-8-trifluoromethyl-6,7,8,9-tetrahydro-pyrimido[1,2-a]-pyrimidin-4-one], the IC50 was 0.01 to 0.1 µM.

`C[C@@H]1COCCN1c1nc2n(c(=O)c1F)CC[C@@H](C(F)(F)F)N2Cc1ccnn1C(F)F` [Example 297, (S)-9-(2-Difluoromethyl-2H-pyrazol-3-ylmethyl)-3-fluoro-2-((R)-3-methyl-morpholin-4-yl)-8-trifluoromethyl-6,7,8,9-tetrahydro-pyrimido[1,2-a]-pyrimidin-4-one]: the IC50 was < 0.01 µM. On to `C[C@H](O)CN1c2nc(N3CCOC[C@H]3C)cc(=O)n2CC[C@H]1C(F)(F)F` [Example 205, (S)-9-((S)-2-Hydroxy-propyl)-2-((R)-3-methylmorpholin-4-yl)-8-trifluoromethyl-6,7,8,9-tetrahydro-pyrimido[1,2-a]-pyrimidin-4-one], for which the half-maximal inhibitory concentration (IC50) is < 0.01 µM.
